# Test results taken from patent US20240228482A1, “COMPOUNDS, COMPOSITIONS AND METHODS OF TREATING CANCER” (HOTSPOT THERAPEUTICS, INC., priority 2021, published 2024).
# Molecular target: T1, CBL-B (Homo sapiens, UniProt Q13191)
# T1 construct: GST
# Assay: CBL-B TR-FRET IC50 screening (E1/E2 ubiquitination, Biotin-Ubiquitin, Anti GST-Tb donor / Streptavidin-d2 acceptor)
# Assay type: biochemical
# Conditions: CBL-B 10 nM final; 11-point titration from 100 uM; binned A-F; read-out: CBL-B TR-FRET activity IC50
# T1 sequence (Q13191 whole entry): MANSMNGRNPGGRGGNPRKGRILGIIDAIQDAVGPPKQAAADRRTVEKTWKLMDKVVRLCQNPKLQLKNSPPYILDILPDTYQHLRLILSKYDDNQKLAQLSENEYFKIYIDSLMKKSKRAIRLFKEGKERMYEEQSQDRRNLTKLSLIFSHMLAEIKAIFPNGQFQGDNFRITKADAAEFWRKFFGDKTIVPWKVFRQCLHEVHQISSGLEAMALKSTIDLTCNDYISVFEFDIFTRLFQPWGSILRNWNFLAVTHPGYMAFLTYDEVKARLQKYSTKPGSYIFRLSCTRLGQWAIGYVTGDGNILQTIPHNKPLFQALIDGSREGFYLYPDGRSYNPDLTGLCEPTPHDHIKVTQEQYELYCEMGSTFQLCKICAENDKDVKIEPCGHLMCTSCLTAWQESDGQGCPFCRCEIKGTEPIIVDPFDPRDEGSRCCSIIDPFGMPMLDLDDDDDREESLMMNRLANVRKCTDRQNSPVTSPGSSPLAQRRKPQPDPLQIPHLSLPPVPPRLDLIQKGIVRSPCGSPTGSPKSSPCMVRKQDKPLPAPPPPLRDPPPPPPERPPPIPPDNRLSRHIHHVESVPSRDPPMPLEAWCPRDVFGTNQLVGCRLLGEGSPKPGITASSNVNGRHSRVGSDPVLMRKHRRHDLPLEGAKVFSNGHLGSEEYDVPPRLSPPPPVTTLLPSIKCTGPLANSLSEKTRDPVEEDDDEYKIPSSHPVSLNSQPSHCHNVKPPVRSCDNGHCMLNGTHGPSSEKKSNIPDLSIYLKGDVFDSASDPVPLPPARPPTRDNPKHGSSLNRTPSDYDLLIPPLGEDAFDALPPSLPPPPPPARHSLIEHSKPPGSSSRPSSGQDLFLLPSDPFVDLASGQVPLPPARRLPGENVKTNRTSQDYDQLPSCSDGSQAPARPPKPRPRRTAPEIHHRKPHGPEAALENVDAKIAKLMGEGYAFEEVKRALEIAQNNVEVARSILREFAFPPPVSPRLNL
row,IC50 [nM],Compound
1,3000 to 10000,"Cn1cnnc1[C@H](c1cccc(-n2cc3c(C(F)(F)F)cc(CN4CC[C@H](C#N)C4)cn3c2=O)c1)C1CCC1 (single isomer, unassigned) [Compound 173]"
2,< 100,"Cn1cnnc1[C@@H](c1cccc(-n2cc3c(C(F)(F)F)cc(CN4CC[C@H](C#N)C4)cn3c2=O)c1)C1CCC1 (single isomer, unassigned) [Compound 174]"
3,< 100,"Cn1cnnc1CC1(c2cccc(-n3cc4c(C(F)(F)F)cc(CN5CCCC(O)CC5)cn4c3=O)c2)COC1 (single isomer, unassigned) [Compound 176]"
4,< 100,"Cn1cnnc1CC1(c2cccc(-n3cc4c(C(F)(F)F)cc(CN5CCCC(O)CC5)cn4c3=O)c2)COC1 (single isomer, unassigned) [Compound 177]"
5,100 to 300,"CN1CCCCC1c1cc(C(F)(F)F)c2cn(-c3cccc(C4(Cc5nncn5C)COC4)c3)c(=O)n2c1 (single isomer, unassigned) [Compound 186]"
6,100 to 300,"CN1CCCCC1c1cc(C(F)(F)F)c2cn(-c3cccc(C4(Cc5nncn5C)COC4)c3)c(=O)n2c1 (single isomer, unassigned) [Compound 187]"
7,< 100,"[2H]C([2H])([2H])n1cnnc1C1(c2cccc(-n3cc4c(C(F)(F)F)cc(CN5CCC[C@H](C)C5)cn4c3=O)c2)CC(C)C1 (single isomer, unassigned) [Compound 189]"
8,< 100,"CC1CC(c2cccc(-n3cc4c(C(F)(F)F)cc(CN5CCO[C@H](C)C5)cn4c3=O)c2)(c2nncn2C)C1 (single isomer, unassigned) [Compound 190]"
9,301 to 1000,"CC(c1cc(C(F)(F)F)c2cn(-c3cccc([C@@H](c4nncn4C)C4CCC4)c3)c(=O)n2c1)N1CCC[C@H](C)C1 (single isomer, unassigned) [Compound 191]"
10,< 100,"CC(c1cc(C(F)(F)F)c2cn(-c3cccc([C@@H](c4nncn4C)C4CCC4)c3)c(=O)n2c1)N1CCC[C@H](C)C1 (single isomer, unassigned) [Compound 192]"
11,< 100,"CC(c1cc(C(F)(F)F)c2cn(-c3cccc([C@H](c4nncn4C)C4CCC4)c3)c(=O)n2c1)N1CCC[C@H](C)C1 (single isomer, unassigned) [Compound 193]"
12,< 100,"CC(c1cc(C(F)(F)F)c2cn(-c3cccc([C@H](c4nncn4C)C4CCC4)c3)c(=O)n2c1)N1CCC[C@H](C)C1 (single isomer, unassigned) [Compound 194]"
13,100 to 300,"C[C@H]1CCCN(C(c2cc(C(F)(F)F)c3cn(-c4cccc(C5(Cc6nncn6C)COC5)c4)c(=O)n3c2)C(F)(F)F)C1 (single isomer, unassigned) [Compound 195]"
14,301 to 1000,"C[C@H]1CCCN(C(c2cc(C(F)(F)F)c3cn(-c4cccc(C5(Cc6nncn6C)COC5)c4)c(=O)n3c2)C(F)(F)F)C1 (single isomer, unassigned) [Compound 196]"
15,< 100,"C[C@H]1CCCN(Cc2cc(C(F)(F)F)c3cn(-c4cccc([C@H](c5nncs5)C5CCC5)c4)c(=O)n3c2)C1 (single isomer, unassigned) [Compound 202]"
16,301 to 1000,"C[C@H]1CCCN(Cc2cc(C(F)(F)F)c3cn(-c4cccc([C@@H](c5nncs5)C5CCC5)c4)c(=O)n3c2)C1 (single isomer, unassigned) [Compound 203]"
17,< 100,"C[C@@H]1CN(Cc2cc(C(F)(F)F)c3cn(-c4cccc([C@]5(Cc6nncn6C)C[C@H](C#N)C5)c4)c(=O)n3c2)CCC1(F)F (single isomer, unassigned) [Compound 204]"
18,< 100,"C[C@H]1CN(Cc2cc(C(F)(F)F)c3cn(-c4cccc([C@]5(Cc6nncn6C)C[C@H](C#N)C5)c4)c(=O)n3c2)CCC1(F)F (single isomer, unassigned) [Compound 205]"

row,IC50 [nM],Compound
1,< 100,"C[C@@H]1CN(Cc2cc(C(F)(F)F)c3cn(-c4cccc([C@]5(c6nncn6C)C[C@@H](C)C5)c4)c(=O)n3c2)CCO1 (single isomer, unassigned) [Compound 213]"
2,< 100,"[2H]C([2H])([2H])n1cnnc1[C@]1(c2cccc(-n3cc4c(C(F)(F)F)cc(CN5CCC[C@H](C)C5)cn4c3=O)c2)C[C@@H](C)C1 (single isomer, unassigned) [Compound 214]"
3,< 100,"Cn1cnnc1[C@]1(c2cccc(-n3cc4c(C(F)(F)F)cc(CN5CCC6(CC6)C5)cn4c3=O)c2)C[C@@H](C)C1 (single isomer, unassigned) [Compound 215]"
4,< 100,"Cn1cnnc1[C@]1(c2cccc(-n3cc4c(C(F)(F)F)cc(CN5CCC(C)(F)CC5)cn4c3=O)c2)C[C@@H](C)C1 (single isomer, unassigned) [Compound 217]"
5,< 100,"Cn1cnnc1[C@]1(c2cccc(-n3cc4c(C(F)(F)F)cc(CN5CCC6(CC6)C5)cn4c3=O)c2)C[C@H](C)C1 (single isomer, unassigned) [Compound 222]"
6,< 100,"C[C@H]1CCCN(Cc2cc(C(F)(F)F)c3cn(-c4cc([C@@H](c5nncn5C)C5CCC5)cc(C(F)(F)F)c4)c(=O)n3c2)C1 (single isomer, unassigned) [Compound 223]"
7,> 10000,"C[C@H]1CCCN(Cc2cc(C(F)(F)F)c3cn(-c4cc([C@H](c5nncn5C)C5CCC5)cc(C(F)(F)F)c4)c(=O)n3c2)C1 (single isomer, unassigned) [Compound 224]"
8,< 100,"Cn1cnnc1[C@]1(c2cccc(-n3cc4c(C(F)(F)F)cc(CN5CC[C@H](F)C5)cn4c3=O)c2)C[C@H](C)C1 (single isomer, unassigned) [Compound 226]"
9,< 100,"Cn1cnnc1[C@]1(c2cccc(-n3cc4c(C(F)(F)F)cc(CN5CCC(C)(F)CC5)cn4c3=O)c2)C[C@H](C)C1 (single isomer, unassigned) [Compound 227]"
10,3000 to 10000,"C[C@@H]1CN([C@H](C)c2cc(C(F)(F)F)c3cn(-c4cccc([C@@H](c5nncn5C)C5CCC5)c4)c(=O)n3c2)CCO1 (single isomer, unassigned) [Compound 231]"
11,301 to 1000,"C[C@@H]1CN([C@@H](C)c2cc(C(F)(F)F)c3cn(-c4cccc([C@@H](c5nncn5C)C5CCC5)c4)c(=O)n3c2)CCO1 (single isomer, unassigned) [Compound 232]"
12,< 100,"C[C@@H]1CN([C@H](C)c2cc(C(F)(F)F)c3cn(-c4cccc([C@H](c5nncn5C)C5CCC5)c4)c(=O)n3c2)CCO1 (single isomer, unassigned) [Compound 233]"
13,< 100,"C[C@@H]1CN([C@@H](C)c2cc(C(F)(F)F)c3cn(-c4cccc([C@H](c5nncn5C)C5CCC5)c4)c(=O)n3c2)CCO1 (single isomer, unassigned) [Compound 234]"
14,1000 to 3000,"COC1CCN(Cc2cc(C(F)(F)F)c3cn(-c4cccc([C@@H](c5nncn5C)C5CCC5)c4)c(=O)n3c2)CC1 (single isomer, unassigned) [Compound 235]"
15,< 100,"Cn1cnnc1[C@]1(c2cccc(-n3cc4c(C(F)(F)F)cc(CN5CC6(CC6)C5)cn4c3=O)c2)C[C@H](C)C1 (single isomer, unassigned) [Compound 236]"
16,< 100,"Cn1cnnc1[C@]1(c2cccc(-n3cc4c(C(F)(F)F)cc(CN5CCC(F)CC5)cn4c3=O)c2)C[C@H](C)C1 (single isomer, unassigned) [Compound 237]"
17,> 10000,"C[C@H]1CCCN(Cc2cc(C(F)(F)F)c3cn(-c4cc(F)cc([C@@H](c5nncn5C)C5CCC5)c4)c(=O)n3c2)C1 (single isomer, unassigned) [Compound 242]"
